Test system: 966289-007-R4-J1-PDC complex spheroid viability
Test: Anticancer human tumor 966289-007-R4-J1-PDC patient-derived pancreatic adenocarcinoma cell line growth inhibition [RAS]
Settings: for IC50: curve of first compound; for viability, T/C: stronger effect = lower value
Procedure, shortened: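 Tumour cells grown as complex spheroids with HUVEC endothelial cells and mesenchymal stem cells, treated with RAS pathway inhibitor combinations. Each agent spans half-log steps from near clinical Cmax, or 10 microM where Cmax is unknown.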

[1] = second compound 0.000949 µM, first compound 0.0316 µM
[2] = second compound 0.000949 µM, first compound 0.1 µM
[3] = second compound 0.000949 µM, first compound 0.316 µM
[4] = second compound 0.000949 µM, first compound 1 µM
[5] = second compound 0.000949 µM, first compound 3.16 µM
[6] = second compound 0.000949 µM, first compound 10 µM
[7] = second compound 0.003 µM, first compound 0.0316 µM
[8] = second compound 0.003 µM, first compound 0.1 µM
[9] = second compound 0.003 µM, first compound 0.316 µM
[10] = second compound 0.003 µM, first compound 1 µM
[11] = second compound 0.003 µM, first compound 3.16 µM
[12] = second compound 0.003 µM, first compound 10 µM
[13] = second compound 0.00949 µM, first compound 0.0316 µM
[14] = second compound 0.00949 µM, first compound 0.1 µM
[15] = second compound 0.00949 µM, first compound 0.316 µM
[16] = second compound 0.00949 µM, first compound 1 µM
[17] = second compound 0.00949 µM, first compound 3.16 µM
[18] = second compound 0.00949 µM, first compound 10 µM
[19] = second compound 0.03 µM, first compound 0.0316 µM
[20] = second compound 0.03 µM, first compound 0.1 µM
[21] = second compound 0.03 µM, first compound 0.316 µM
[22] = second compound 0.03 µM, first compound 1 µM
[23] = second compound 0.03 µM, first compound 3.16 µM
[24] = second compound 0.03 µM, first compound 10 µM
[25] = second compound 0.0949 µM, first compound 0.0316 µM
[26] = second compound 0.0949 µM, first compound 0.1 µM
[27] = second compound 0.0949 µM, first compound 0.316 µM
[28] = second compound 0.0949 µM, first compound 1 µM
[29] = second compound 0.0949 µM, first compound 3.16 µM
[30] = second compound 0.0949 µM, first compound 10 µM
[31] = second compound 0.3 µM, first compound 0.0316 µM
[32] = second compound 0.3 µM, first compound 0.1 µM
[33] = second compound 0.3 µM, first compound 0.316 µM
[34] = second compound 0.3 µM, first compound 1 µM
[35] = second compound 0.3 µM, first compound 3.16 µM
[36] = second compound 0.3 µM, first compound 10 µM
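Note: spheroids exposed to agents for one week before readout.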
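Throughout, for viability, T/C: percent viability relative to DMSO vehicle control wells as 100%.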

With `CC1(O)CCCC1n1c(=O)c(C(F)F)cc2cnc(NC3CCN(S(C)(=O)=O)CC3)nc21` (stereo unspecified) + CCn1c(-c2cc(N3CCN(C)CC3)cnc2C(C)OC)c2c3cc(ccc31)-c1csc(n1)CC(NC(=O)C1CC1C)C(=O)N1CCCC(N1)C(=O)OCC(C)(C)C2 the IC50 (second compound 0.000949 µM) was 0.169 µM, the IC50 (second compound 0.003 µM) was 0.12 µM and the IC50 (second compound 0.00949 µM) was 0.108 µM. The IC50 (second compound 0.03 µM) was 0.0928 µM, the IC50 (second compound 0.0949 µM) was 0.096 µM and the IC50 (second compound 0.3 µM) was 0.139 µM. The viability, T/C [1] was 148%, the viability, T/C [2] was 63.6% and the viability, T/C [3] was 28.7%. The viability, T/C [4] was 29.1%, the viability, T/C [5] was 26.8% and the viability, T/C [6] was 2.64%. The viability, T/C [7] was 125%, the viability, T/C [8] was 51.6% and the viability, T/C [9] was 27.8%. It also gave a viability, T/C [10] of 24.4%, a viability, T/C [11] of 24.8% and a viability, T/C [12] of 3.3%. It also gave a viability, T/C [13] of 98.4%, a viability, T/C [14] of 52.7% and a viability, T/C [15] of 22.4%. For the same molecule, the viability, T/C [16] was 25.9%, the viability, T/C [17] was 26% and the viability, T/C [18] was 3.14%. It also gave a viability, T/C [19] of 85%, a viability, T/C [20] of 48.6% and a viability, T/C [21] of 21.9%. The viability, T/C [22] was 23.7%, the viability, T/C [23] was 25.1% and the viability, T/C [24] was 3%. The viability, T/C [25] was 84.5%, the viability, T/C [26] was 47.4% and the viability, T/C [27] was 25.4%. The viability, T/C [28] was 27.1%, the viability, T/C [29] was 26.6% and the viability, T/C [30] was 2.94%. For the same molecule, the viability, T/C [31] was 107%, the viability, T/C [32] was 55.9% and the viability, T/C [33] was 28.7%. For the same molecule, the viability, T/C [34] was 25.8%, the viability, T/C [35] was 24.9% and the viability, T/C [36] was 3.18%.

`CCc1c2c(nc3ccc(O)cc13)-c1cc3c(c(=O)n1C2)COC(=O)[C@]3(O)CC` + CCn1c(-c2cc(N3CCN(C)CC3)cnc2C(C)OC)c2c3cc(ccc31)-c1csc(n1)CC(NC(=O)C1CC1C)C(=O)N1CCCC(N1)C(=O)OCC(C)(C)C2 gave an IC50 (second compound 0.000949 µM) of 0.00167 µM, an IC50 (second compound 0.003 µM) of 0.00157 µM and an IC50 (second compound 0.00949 µM) of 0.00139 µM. For the same molecule, the IC50 (second compound 0.03 µM) was 0.00114 µM, the IC50 (second compound 0.0949 µM) was 0.00115 µM and the IC50 (second compound 0.3 µM) was 0.00121 µM. The viability, T/C (second compound 0.000949 µM, first compound 0.000949 µM) was 95.5%, the viability, T/C (second compound 0.000949 µM, first compound 0.003 µM) was 2.7% and the viability, T/C (second compound 0.000949 µM, first compound 0.00949 µM) was 0.64%. It also gave a viability, T/C (second compound 0.000949 µM, first compound 0.03 µM) of 0.62%, a viability, T/C (second compound 0.000949 µM, first compound 0.0949 µM) of 0.49% and a viability, T/C (second compound 0.000949 µM, first compound 0.3 µM) of 0.57%. The viability, T/C (second compound 0.003 µM, first compound 0.000949 µM) was 86.2%, the viability, T/C (second compound 0.003 µM, first compound 0.003 µM) was 3.2% and the viability, T/C (second compound 0.003 µM, first compound 0.00949 µM) was 0.55%. For the same molecule, the viability, T/C (second compound 0.003 µM, first compound 0.03 µM) was 0.6%, the viability, T/C (second compound 0.003 µM, first compound 0.0949 µM) was 1.32% and the viability, T/C (second compound 0.003 µM, first compound 0.3 µM) was 0.57%. The viability, T/C (second compound 0.00949 µM, first compound 0.000949 µM) was 71.3%, the viability, T/C (second compound 0.00949 µM, first compound 0.003 µM) was 6.94% and the viability, T/C (second compound 0.00949 µM, first compound 0.00949 µM) was 1.03%. For the same molecule, the viability, T/C (second compound 0.00949 µM, first compound 0.03 µM) was 0.54%, the viability, T/C (second compound 0.00949 µM, first compound 0.0949 µM) was 0.73% and the viability, T/C (second compound 0.00949 µM, first compound 0.3 µM) was 0.75%. It also gave a viability, T/C (second compound 0.03 µM, first compound 0.000949 µM) of 58.1%, a viability, T/C (second compound 0.03 µM, first compound 0.003 µM) of 7.49% and a viability, T/C (second compound 0.03 µM, first compound 0.00949 µM) of 0.82%. For the same molecule, the viability, T/C (second compound 0.03 µM, first compound 0.03 µM) was 1.66%, the viability, T/C (second compound 0.03 µM, first compound 0.0949 µM) was 0.53% and the viability, T/C (second compound 0.03 µM, first compound 0.3 µM) was 0.43%. For the same molecule, the viability, T/C (second compound 0.0949 µM, first compound 0.000949 µM) was 58.9%, the viability, T/C (second compound 0.0949 µM, first compound 0.003 µM) was 4.98% and the viability, T/C (second compound 0.0949 µM, first compound 0.00949 µM) was 0.8%. For the same molecule, the viability, T/C (second compound 0.0949 µM, first compound 0.03 µM) was 0.54%, the viability, T/C (second compound 0.0949 µM, first compound 0.0949 µM) was 0.7% and the viability, T/C (second compound 0.0949 µM, first compound 0.3 µM) was 0.4%. It also gave a viability, T/C (second compound 0.3 µM, first compound 0.000949 µM) of 62.1%, a viability, T/C (second compound 0.3 µM, first compound 0.003 µM) of 4.76% and a viability, T/C (second compound 0.3 µM, first compound 0.00949 µM) of 0.65%. The viability, T/C (second compound 0.3 µM, first compound 0.03 µM) was 0.58%, the viability, T/C (second compound 0.3 µM, first compound 0.0949 µM) was 0.62% and the viability, T/C (second compound 0.3 µM, first compound 0.3 µM) was 0.39%.

Molecule `CC(Nc1ccc2c(c1)OCCn1cc(N3C(=O)OCC3C(F)F)nc1-2)C(N)=O` (stereo unspecified) + CCn1c(-c2cc(N3CCN(C)CC3)cnc2C(C)OC)c2c3cc(ccc31)-c1csc(n1)CC(NC(=O)C1CC1C)C(=O)N1CCCC(N1)C(=O)OCC(C)(C)C2 has an IC50 (second compound 0.000949 µM) of over 10 µM, an IC50 (second compound 0.003 µM) of over 10 µM and an IC50 (second compound 0.00949 µM) of over 10 µM. The IC50 (second compound 0.03 µM) was over 10 µM, the IC50 (second compound 0.0949 µM) was over 10 µM and the IC50 (second compound 0.3 µM) was over 10 µM. For the same molecule, the viability, T/C [1] was 126%, the viability, T/C [2] was 124% and the viability, T/C [3] was 105%. For the same molecule, the viability, T/C [4] was 92.2%, the viability, T/C [5] was 110% and the viability, T/C [6] was 103%. For the same molecule, the viability, T/C [7] was 115%, the viability, T/C [8] was 104% and the viability, T/C [9] was 108%. For the same molecule, the viability, T/C [10] was 83.7%, the viability, T/C [11] was 96.8% and the viability, T/C [12] was 99.3%. For the same molecule, the viability, T/C [13] was 123%, the viability, T/C [14] was 113% and the viability, T/C [15] was 104%. The viability, T/C [16] was 96%, the viability, T/C [17] was 111% and the viability, T/C [18] was 95.2%. It also gave a viability, T/C [19] of 84.6%, a viability, T/C [20] of 97% and a viability, T/C [21] of 133%. The viability, T/C [22] was 92.2%, the viability, T/C [23] was 122% and the viability, T/C [24] was 95%. The viability, T/C [25] was 91.6%, the viability, T/C [26] was 119% and the viability, T/C [27] was 104%. It also gave a viability, T/C [28] of 101%, a viability, T/C [29] of 114% and a viability, T/C [30] of 88.4%. It also gave a viability, T/C [31] of 121%, a viability, T/C [32] of 108% and a viability, T/C [33] of 90.3%. For the same molecule, the viability, T/C [34] was 94.5%, the viability, T/C [35] was 123% and the viability, T/C [36] was 92%.

From PubChem BioAssay AID2060897 (Molecular Pharmacology Branch, DTP, NCI, 2025)
